From patent US9006238B2, “Pyrazolo pyridine derivatives as NADPH oxidase inhibitors” (Genkyotex SA, priority 2008, dated 2015) come the findings set out here.

Molecules are shown by their SMILES.

Assay [1] has as its target T1, NOX (Homo sapiens, UniProt P04839).
T1 construct: HL60 differentiation to the neutrophil phenotype was triggered by adding Me2SO; endogenous in cells; host or cells: HL-60 cells differentiated with DMSO (1.25% v/v, 6 days) to the neutrophil phenotype
T1 sequence (P04839 1-570): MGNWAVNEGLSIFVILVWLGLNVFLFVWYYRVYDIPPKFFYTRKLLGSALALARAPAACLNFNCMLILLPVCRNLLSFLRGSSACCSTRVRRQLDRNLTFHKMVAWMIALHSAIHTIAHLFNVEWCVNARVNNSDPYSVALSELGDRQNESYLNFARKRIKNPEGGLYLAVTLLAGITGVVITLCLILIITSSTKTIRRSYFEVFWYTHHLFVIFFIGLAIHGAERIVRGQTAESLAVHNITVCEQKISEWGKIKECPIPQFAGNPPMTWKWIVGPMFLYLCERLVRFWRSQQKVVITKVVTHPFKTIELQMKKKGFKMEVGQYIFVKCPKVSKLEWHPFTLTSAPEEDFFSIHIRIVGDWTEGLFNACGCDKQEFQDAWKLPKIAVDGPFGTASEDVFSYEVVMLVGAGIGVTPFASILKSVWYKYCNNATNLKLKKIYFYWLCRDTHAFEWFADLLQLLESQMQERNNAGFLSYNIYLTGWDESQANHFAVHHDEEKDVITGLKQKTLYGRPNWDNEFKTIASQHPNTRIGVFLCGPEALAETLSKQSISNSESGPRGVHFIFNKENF
T1 sequence (P13498 1-195 partner): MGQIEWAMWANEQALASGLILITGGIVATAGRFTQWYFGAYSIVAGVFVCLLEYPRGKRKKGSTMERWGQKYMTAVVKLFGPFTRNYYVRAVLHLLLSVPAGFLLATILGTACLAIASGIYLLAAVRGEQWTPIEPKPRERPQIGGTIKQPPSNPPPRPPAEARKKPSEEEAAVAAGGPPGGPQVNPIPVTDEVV
In words: Amplex Red measurement of extracellular hydrogen peroxide (NOX activity) using DMSO-differentiated HL60 cells. The format is cell-based. The settings on record: for IC50 / Inhibition (%) of NOX activity: DMSO-differentiated HL60 cells; for Inhibition (%) of NOX activity: test concentration not given. The method, then:
(§1) The activity of the compounds according to the invention may be tested for their activity in the inhibition or reduction of formation of reactive oxygen species (ROS) from oxygen in cells. The activity of the compounds is tested in the following cell cultures by different techniques such as nitroblue tetrazolium, Amplex Red, Chemiluminescence (Luminol) and 2′,7′-dichlorodihydrofluorescein diacetate (H2DCF-DA) according to the protocols detailed below.
Human acute myeloid leukemia cell line HL-60 was cultured in RPMI 1640 (Invitrogen) supplemented with 10% heat-inactivated calf serum, 2 mM glutamine, 100 U/mL penicillin (Sigma), and 100 μg streptomycin (Sigma) at 37° C. under a humidified atmosphere of 5% CO2. HL60 differentiation to the neutrophil phenotype was triggered by adding Me2SO (final concentration 1.25% v/v for 6 days) to the culture medium.
(§2) Extracellular hydrogen peroxide was measured using Amplex UltraRed (Molecular Probes). Cells were trypsinized (1× Trypsin-EDTA), collected by centrifugation, and resuspended in HBSS supplemented with 1% glucose. Cells were seeded into black 96-well plates at a density of 50,000 cells in 200 μl testing buffer (HBSS 1% glucose containing 0.005 U/mL horseradish peroxidase (Roche) and 50 μM Amplex Red in the presence or absence of compounds according to the invention. As a control, DPI was included at a final concentration of 10 μM The plates were placed in the fluorescent Optima Fluorescent plate reader and kept at 37° C. during 20 min. Fluorescence was measured for […] with excitation and emission wavelengths of 544 nm and 590 nm respectively. NOX activities were expressed as % of the activity in control cells. Residual activity of DPI-treated cells was usually <10%.
The Table 2 below summarizes the percentage of inhibition of NOX activity as measured by Amplex Red using DMSO-differentiated HL60 cells as described above:
The Table 3 below summarizes the IC50 of NOX activity as measured by Amplex Red using DMSO-differentiated HL60 cells as described above: […]

Assay [2] relates to NOX. The assay is described as follows: Nitroblue tetrazolium (NBT) test of intracellular and extracellular superoxide in cell cultures. Format: cell-based, human. The following applies: DPI final concentration 10 μM, 2.5 h. The protocol: as §1
Human microglia cell line (HMC3, human microglia clone 3) (Janabi et al., 1995, Neurosci. Lett. 195:105) were cultured in MEM (Eagle's minimum essential medium) containing 10% FBS with 50 U/ml penicillin G sodium 50 μg/ml streptomycin sulfate, and incubated at 37° C. for 24 hours. IFN-γ (human IFN-γ, Roche. 11 040 596 001) was added to the culture medium for a final concentration of 10 ng/ml 24 h, before detection of O2^− formation. […]
Intracellular and extracellular superoxide was measured by a colorimetric technique using a quantitative nitroblue tetrazolium (NBT) test. SOD-inhibitable conversion of NBT to formazan, a fine blue precipitate, in the presence of superoxide anion was measured using Fluostar Optima spectrometer (BMG labtech). […] The absorption was measured at 630 nm. For calculation, the absorbance at 630 nm was normalized for each individual well. […] NOX activities were expressed as % of the activity in control cells. […]

The test system of assay [3] is NOX. The assay is described as follows: Chemiluminescence (luminol) measurement of ROS in cell cultures. The following applies: 60 minutes at 37° C. Format: cell-based, human. The method, then:
as §1, §2
ROS was measured using the chemiluminescent probe luminol. […]

For assay [4], the system named is NOX. In words: H2DCF-DA (DCF fluorescence) measurement of ROS in HUVEC stimulated with TGF-β. The format is cell-based, human. The following applies: TGF-β stimulation. The protocol:
The activity of the compounds according to the invention may be tested for their activity in the inhibition or reduction of formation of reactive oxygen species (ROS) from oxygen in cells. The activity of the compounds is tested in the following cell cultures by different techniques such as nitroblue tetrazolium, Amplex Red, Chemiluminescence (Luminol) and 2′,7′-dichlorodihydrofluorescein diacetate (H2DCF-DA) according to the protocols detailed below. […]
HUVEC were plated on coverslips and made quiescent overnight in 0.5% BSA before stimulation with TGF-β. […] DCF fluorescence was visualized at an excitation wavelength of 488 nm and emission at 515 to 540 nm. […] For calculation, the absorbance at […] was normalized to absorbance at […] for each individual well. […] NOX activities were expressed as % of the activity in control cells. […]

As to `c1ccc([I+]c2ccccc2)cc1` [DPI, Diphenyl-iodonium], the “Residual activity of DPI-treated cells (NOX activity as % of the activity in control cells)” value in assay [1] (DPI final concentration 10 μM), in assay [2], in assay [3] and in assay [4] was less than 10% throughout.

On to `Cc1c2c(=O)n(CCN3CCOCC3)[nH]c2cc(=O)n1Cc1ccc(Cl)cc1` [Compound 10, 5-(4-Chlorobenzyl)-4-Methyl-2-(2-Morpholin-4-Ylethyl)-1H-Pyrazolo[4,3-c]Pyridine-3,6(2H,5H)-Dione], for which, in assay [1], the IC50 was less than 5 µM and the “Inhibition (%) of NOX activity” value is 77%.

For the compound `CC(=O)N1CCC(Cn2c(-c3ccc(Cl)cc3)c3c(=O)n(C)[nH]c3cc2=O)CC1` [Compound 98], in assay [1], the “Inhibition (%) of NOX activity” value worked out at 92%.

Take `COCCn1c(CCCOc2ccccc2)c2c(=O)n(CCN3CCOCC3)[nH]c2cc1=O` [Compound 74, 5-(2-methoxyethyl)-2-(2-morpholin-4-ylethyl)-4-(3-phenoxypropyl)-1H-pyrazolo[4,3-c]pyridine-3,6 (2H,5H)-dione]: in assay [1], the IC50 is less than 5 µM and the “Inhibition (%) of NOX activity” value stood at 95%.

For `CCOCCCn1c(COCc2ccccc2)c2c(=O)n(CCN3CCOCC3)[nH]c2cc1=O` [Compound 89, 4-[(benzyloxy)methyl]-5-(3-ethoxypropyl)-2-(2-morpholin-4-ylethyl)-1H-pyrazolo[4,3-c]pyridine-3,6 (2H,5H)-dione], in assay [1], the half-inhibitory concentration (IC50) is less than 5 µM and the “Inhibition (%) of NOX activity” value was 86%.

As to `Cc1c2c(=O)n(Cc3ccccc3)[nH]c2cc(=O)n1Cc1ccccn1` [Compound 1, 2-Benzyl-4-Methyl-5-(Pyridin-2-Ylmethyl)-1H-Pyrazolo[4,3-c]Pyridine-3,6(2H,5H)-Dione], in assay [1], the IC50 was less than 5 µM and the “Inhibition (%) of NOX activity” value stood at 67%.

As to `Cc1c2c(=O)n(CCOc3ccc(Cl)cc3)[nH]c2cc(=O)n1Cc1ccccn1` [Compound 24, 2-[2-(4-chlorophenoxy)ethyl] 4-methyl-5-(pyridin-2-ylmethyl)-1H-pyrazolo[4,3-c] pyridine-3,6(2H,5H)-dione], in assay [1], the IC50 was less than 5 µM and the “Inhibition (%) of NOX activity” value came to 79%.

With `Cc1c2c(=O)n(CCc3ccccc3)[nH]c2cc(=O)n1Cc1ccccc1CN1CCOCC1` [Compound 30, 4-methyl-5-[2-(morpholin-4-ylmethyl)benzyl]-2-(2-phenylethyl)-1H-pyrazolo[4,3-c]pyridine-3,6(2H,5H)-dione], in assay [1], the IC50 is less than 5 µM and the “Inhibition (%) of NOX activity” value is listed as 77%.

Take `Cc1c2c(=O)n(C)[nH]c2cc(=O)n1CCN1CCOCC1` [Compound 16, 2,4-Dimethyl-5-(2-Morpholin-4-Ylethyl)-1H-Pyrazolo[4,3-c]Pyridine-3,6(2H,5H)-Dione]: in assay [1], the IC50 is less than 5 µM and the “Inhibition (%) of NOX activity” value is 74%.

With `COCCn1[nH]c2cc(=O)n(Cc3ccccc3CN3CCOCC3)c(C)c2c1=O` [Compound 18, 2-(2-methoxyethyl)-4-methyl-5-[2-(morpholin-4ylmethyl)benzyl]-1H-pyrazolo[4,3-c]pyridine-3,6(2H,5H)-dione], in assay [1], the 50% inhibitory concentration (IC50) was less than 5 µM and the “Inhibition (%) of NOX activity” value is 75%.
